The source of these data is patent US20060228297A1, “Thorium-227 for use in radiotherapy of soft tissue disease” (priority 2003, published 2006).

Structures are written as SMILES.

For series [1] the following is noted: then concentrated in the skeleton or excreted via intestinal and renal routes; cited from earlier work.
The subject of series [2] is humans. Put plainly: Estimate of ^223Ra toxicity from prior art (translated from ^224Ra dog data). Conditions: expected for humans, assuming similar haematological toxicity in dogs and humans. The text has this: Because of the lack of human data on toxicity of radium-223 and radium-224, an assumed radiotoxicity for ^223Ra can be derived as follows, using published data for radium-224 in dogs. The decay series (including the decays of daughter nuclides) of both ^224Ra and ^223Ra causes an emission of four alpha panicles per radium atoms. The total alpha particle doses from ^223Ra and ^224Ra in equilibrium with daughters are approximately 26.3 and 27.1 MeV per transformation respectively and are therefore closely equivalent. The half-lives of ^224Ra is 3.62 days and for ^223Ra it is 11.43 days. This means that per activity unit injected, the skeletal dose from ^223Ra would be approximately 3.1 times that from ^224Ra, taking into account alpha energy and half-life differences, and assuming long-term biological retention of the radionuclide (i.e., the clearance is governed by the physical half-life of the radionuclide). This is a valid assumption because Ra is a Ca analogue and is readily incorporated into the skeleton.
At 350 kBq/kg death, caused by haematological dyscrasia resulting from bone marrow destruction, occurred in some subjects (3 dogs out of 8). It may therefore be assumed that the maximum tolerable dose of ^224Ra is between 120 and 350 kBq/kg in dogs. Translated into ^223Ra, as described above, this would correspond to 39-113 kBq/kg of ^223Ra. […]

`[223Ra]` [^223Ra, radium-223]: the Blood clearance result in series [1] is recorded as “very rapidly”. Also, the “Maximum tolerable dose, translated from ^224Ra dog data” value in series [2] is 39-113 kBq/kg.
